In US7745465B2, “Method of enhancing cellular production of molecular chaperone, hydroxylamine derivatives useful for enhancing the chaperone production and the preparation thereof” (CytRx Corporation, priority 1995, dated 2010):

How the values were obtained:
Male Sprague-Dawley rats = experiment: Protection against cardiac ischaemia: survival after 5 minutes coronary occlusion and reperfusion; type: in vivo, rat; settings: i.v. 1 mg/kgbw, 5 min. before the occlusion; non-treated control 10
Description: Male Sprague-Dawley rats (380-450 g b.w.) were anaesthetized with sodiumpentobarbital (Nembutal 60 mg/kg body weight, i.p.) and artificially ventilated with room air (2 ml/100 g; 54 stroke/minutes) via tracheotomy. The right carotid artery was catheterized and connected to a pressure transducer (BPR-01, Stoelting) for the measurement of systemic arterial blood pressure (BP) by means of a preamplifier (Hg-02, Experimetria). Hydroxylamine derivatives disclosed in Example 5 were administered via the venous cannule to jugular vein (i.v.) and orally (p.o.). Heart rate (HR) was measured by a cardiotachometer (HR-01, Experimetria). The electrocardiogram (ECG standard lead II) was recorded on a devices recorder (MR-12, Medicor) by means of subcutaneous steel needles electrodes. The chest was opened by a left thoracotomy and the heart was exteriorized by a gentle pressure on the right side of the rib cage. A 4-0 silk suture was quickly placed under the main left coronary artery as described by Selye et al. (1960). The heart was carefully replaced in the chest and the animal left to recover. Rectal temperature was monitored and kept constant at 37 C. The experimental protocol was initiated with a 15 minute stabilization period during which the observation of a sustained blood pressure less than 70 mmHg and or the occurrence of anhythmia led to exclusion. Myocardial ischemia was induced with coronary occlusion for 5 minutes and reperfusion allowed for 10 minutes.
During the entire experiment BP, HR and ECG were continuously registered on a multiscriptor (R61-6CH, Medicor). Hydroxylamine derivatives, the tautomeric forms of which are represented by structures (I) and (II), were administered 5 to 60 minutes before the occlusion after i.v. and p.o. treatment, respectively. […]
The mean duration of ventricular tachycardia (VT) and/or ventricular fibrillation (VF) during the first 3 minutes of reperfusion was analyzed by one-way analysis of variance. The incidence of VF was analyzed using a chi-square test. […] The haemodynamic variables were analyzed using Student's “t”-test. The critical level of significance was set at p<0.05. All results were expressed as a means±S.E.M. Drugs were administered i.v. in a dose of 1 mg/kgbw 5 min. before the occlusion.
The hydroxylamine derivatives that are found to be particularly advantageous for protecting an animal against ischemic/reperfusion injury are listed below. Survival (%) indicates the percent of animals survived the effects of 5 minutes coronary occlusion.

HSP72 = experiment: Heat stress induced HSP72 production in 3T3 cells; type: cell-based, mouse; settings: 10^−5 M
Description: From the applied cells the 3T3 and L-929 mouse fibroblasts were cultured in MEM medium and grew in monolayer, the U-937 human leukemia cells were maintained in RPMI-1640 medium, in suspension culture, while the HeLa human epithelial cells were cultured in DMEM medium and in monolayer form. Cell cultures were maintained as described in example 6.2 (a) with the difference that cells were cultured in the above mentioned culture mediums.
Experiments were carried out applying stress before and after the drug treatment. Stress was provoked by heat, by chemical agent, HgCl2 treatment. The test compounds were applied in the treatments at the 10^−5 M concentration.
The experiments on 3T3 cell applying heat stress were performed as described in the 6.2. (c) point of example 6, with the difference that stress was induced by a 30 min. exposure at 43° C. temperature and treatment with the test compounds was performed 15 min. before or 100 min. after the heat stress.
Immunodetection was carried out using the HSP72 specific SPA 810 (StressGene) primary and the horse-radish peroxidase conjugated A9044 (Sigma) secondary antibodies. Densitometric evaluation was performed by a LKB Ultrascan XL densitometer.

[1] = treatment 15 min. before 30 min. 43° C. heat stress
[2] = treatment 100 min. after 30 min. 43° C. heat stress

Compound	Survival (%) (Male Sprague-Dawley rats)	HSP72 level relative to the stress exposed control (HSP72; [1])	HSP72 level relative to the stress exposed control (HSP72; [2])
CC(C)NCC(O)CON=C(Cl)c1cccnc1.O=C(O)/C=C\C(=O)O (centres unmarked) [N-[2-hydroxy-3-prop-2-yl-amino)-propoxy]-3-pyridincarboximidoyl chloride (Z)-butendioate (1:1)]	60%		
CN(C)C(=NOCCCN1CCCCC1)Nc1ccccc1.Cl [N,N-dimethyl-N′-phenyl-N″-[3-(1-piperidinyl)-propoxy]-guanidine hydrochloride]		++ (51-100%)	
O=C(O)/C=C\C(=O)O.OC(CON=C(Cl)c1ccncc1)CN1CCCCC1 (centres unmarked) [Example 8, N-[2-hydroxy-3-(1-piperidinyl)propoxy]-4-pyridinecarboximidoyl chloride (Z)-2-butenedioate (1:1)]	100%		++ (51-100%)
CCCNC(=O)NOCC(O)CN1CCCCC1 (centres unmarked) [Example 56, N-[2-hydroxy-3-(1-piperidinyl)propoxy]-N′-propyl-urea]		+++ (>100%)	
CC(C)(C)NCC(O)CON=C(Cl)c1cccnc1.O=C(O)/C=C\C(=O)O (centres unmarked) [N-[2-hydroxy-3-(tert-butyl-amino)-propoxy]-3-pyridincarboxamidoyl chloride (Z)-2-butendioate (1:1)]	57%		
Cl.Cl.N=C(NOCC(O)CN1CCCCC1)c1cnc2ccccc2c1 (centres unmarked) [Example 42]		+++ (>100%)	+++ (>100%)
Cl.OC(CON=C(Cl)c1ccco1)CN1CCCCC1 (centres unmarked) [Example 7, N-[2-hydroxy-3-(1-piperidinyl)propoxy]-2-furanecarboximidoyl chloride monohydrochloride]	80%		
CCN(CC)CC(O)CON=C(Cl)c1cccnc1.Cl (centres unmarked) [N-[2-hydroxy-3-(diethyl-amino)-propoxy]-3-pyridincarboximidoyl chloride hydrochloride (1:1)]	62%		
Cl.OC(CON(C(=Nc1ccccc1)c1ccccc1)c1ccccc1)CN1CCCCC1 (centres unmarked) [Example 73]		0 (0 indicates that the treatment altered by ±20% the stress induced hsp72 level in the cells)	
Cl.c1cncc(C(=NOCCCN2CCCCC2)N2CCCC2)c1 [N-[3-(I-piperidinyl)-propoxy]-N′-tetramethylene-3-pyridine-carboxamidine hydrochloride]		+++ (>100%)	
CC(C)NCC(O)CON=C(Cl)c1cccc(C(F)(F)F)c1.Cl (centres unmarked) [Example 10, N-[2-hydroxy-3-[(1-methylethyl)amino]propoxy]-3-trifluoromethyl-benzene-carboximidoyl chloride monohydrochloride]	67%		
COC(=NOCCCN1CCCCC1)c1cccnc1.O=C(O)/C=C\C(=O)O [Methyl-{N-[3-(1-piperidinyl)-propoxy]}-3-pyridine-carboximidate maleate]		0 (0 indicates that the treatment altered by ±20% the stress induced hsp72 level in the cells)	
O=C(O)/C=C\C(=O)O.OC(CON=C(Cl)c1cccnc1)CN1CCOCC1 (centres unmarked) [N-[2-hydroxy-3-(morpholin-1-yl-propoxy]-3-pyridincarboxamidoyl chloride (Z)-2-butendioate (1:1)]	71%		
COC(=NOCC(O)CN1CCCCC1)c1cccnc1.O=C(O)/C=C\C(=O)O (centres unmarked) [Example 66, Methyl-N-[2-hydroxy-3-(1-piperidinyl)propoxy]-3-pyridinecarboximidate (Z)-2-butenedioate (1:1)]	57%		
CC(C)(C)NC(=O)NOCC(O)CN1CCCCC1 (centres unmarked) [Example 62, N-tert-butyl-N′-[(2-hydroxy-3-(1-piperidinyl)propoxy)]-urea]	57%		
N=C(NOCC(CN1CCCCC1)OC(=O)c1ccccc1)c1cccnc1.O=C(O)/C=C\C(=O)O (centres unmarked) [Example 20, N-[2-benzoyloxy-3-(1-piperidinyl)propoxy]-3-pyridinecarboximidamide (Z)-2-butenedioate (1:1)]	100%		
CN(OCCCN1CCCCC1)C(=O)c1cccc(C(F)(F)F)c1.Cl [N-methyl-N-[3-(1-piperidinyl)-propoxy]-m-trifluoromethyl-benzamide hydrochloride]		+++ (>100%)	
Cl.c1ccc(C2=NOCC(CN3CCCCC3)O2)cc1 (centres unmarked) [3-phenyl-5-[(1-piperidinyl)-methyl]-5,6-dihydro-6H-1,4,2-dioxazine hydrochloride]		++ (51-100%)	
CCCCCCNC(=O)N(C)OCCCN1CCCCC1 [N-[3-(I-piperidinyl)-propoxy]-N-methyl-N′-(n-hexyl)-urea]		0 (0 indicates that the treatment altered by ±20% the stress induced hsp72 level in the cells)	
Cl.OC(CON=C(Cl)c1cccc(C(F)(F)F)c1)CN1CCCCC1 (centres unmarked) [Example 13, N-[2-hydroxy-3-(1-piperidinyl)propoxy]-3-trifluoromethyl-benzenecarboximidoyl chloride monohydrochloride]	60%		
O=C(O)/C=C\C(=O)O.OC(CON=C(Cl)c1cccnc1)CN1CCCC1 (centres unmarked) [N-[2-hydroxy-3-(pyrrolidin-1-yl)-propoxy]-3-pyridincarboximidoyl chloride (Z)-2-butendioate (1:1)]	67%		
COc1ccc(CC(Cl)=NOCC(O)CN2CCCCC2)cc1OC (centres unmarked) [N-[2-hydroxy-3-(1-piperidyl)-propoxy]-∀-(3,4-dimethoxy-phenyl)-acetimidoyl chloride]	67%		
CC(=O)OC(CONC(=O)NC1CCCCC1)CN1CCCCC1.Cl (centres unmarked) [N-cyclohexyl-N′-[2-acetoxy-3-(1-piperidinyl)-propoxy]-urea hydrochloride]		0 (0 indicates that the treatment altered by ±20% the stress induced hsp72 level in the cells)	
O=C(NOCC(O)CN1CCCCC1)Nc1cccc([N+](=O)[O-])c1 (centres unmarked) [Example 63, N-(3-nitro-phenyl)-N′-[(2-hydroxy-3-(1-piperidinyl)propoxy)]-urea]	50%		
N-(2-hydroxy-3-piperidino-propoxy)-ethylurethane		+ (21-50%)	
N-[2-hydroxy-3-(1-piperidinyl)-propoxy]-benzylurethane		0 (0 indicates that the treatment altered by ±20% the stress induced hsp72 level in the cells)	
CN(C)C(=Nc1ccccc1)NOCC(O)CN1CCCCC1.Cl (centres unmarked) [Example 71, N,N-dimethyl-N′-[2-hydroxy-3-(1-piperidinyl)-propoxy]-N″-phenyl-guanidine hydrochloride]		0 (0 indicates that the treatment altered by ±20% the stress induced hsp72 level in the cells)	
CC(C)(C)NCC(O)CONC(=N)c1cccc(C(F)(F)F)c1.Cl.Cl (centres unmarked) [Example 47, N-[3-[(1,1-dimethylethyl)amino]-2-hydroxypropoxy]-3-trifluoromethyl-benzenecarboximidamide dihydrochloride]	100%		
O=C(O)/C=C\C(=O)O.c1cncc(C2=NOCC(CN3CCCCC3)O2)c1 (centres unmarked) [3-(3-piridyl)-5-[(1-piperidinyl)-methyl]-5,6-dihydro-6H-1,4,2-dioxazine-(Z)-2-butenedioate(1:1)]		++ (51-100%)	
O=C(O)/C=C\C(=O)O.OC(CON=C(Cl)c1cccnc1)CN1CCCCC1 (single isomer, unassigned; (-)) [(−)N-[2-hydroxy-3-(1-piperidinyl)-propoxy]-3-pyridine-carboximidoyl-chloride-(Z)-2-butenedioate(1:1)]		+++ (>100%)	
